Values of other authors, collected in patent JP2008055197A (priority 2007, dated 2008).

In the case of `O=[N+]([O-])OCC(CO[N+](=O)[O-])O[N+](=O)[O-]` [ニトログリセリン], the “solubility in ethyl alcohol, isopropyl alcohol and the like” value (ethyl alcohol, isopropyl alcohol and the like) is given as “溶解する” and the solubility in water (water) is given as “不溶”.
